From ChEMBL document CHEMBL1811872, “Tryptophan 2,3-dioxygenase (TDO) inhibitors. 3-(2-(pyridyl)ethenyl)indoles as potential anticancer immunomodulators” (J Med Chem, 2011)

Legend:
[1] = biological target: Tryptophan 2,3-dioxygenase (Mus musculus, UniProt P48776); assay: Inhibition of mouse TDO expressed in mouse P815B cells assessed as inhibition of tryptophan catabolism by measuring kynurenine production after 8 hrs by HPLC analysis; type: cell-based
[2] = Cytotoxicity against mouse P815B cells […] by MTT assay; type: functional; conditions: read-out: LD50 (the source's name)

Sequence of Tryptophan 2,3-dioxygenase (P48776 whole entry): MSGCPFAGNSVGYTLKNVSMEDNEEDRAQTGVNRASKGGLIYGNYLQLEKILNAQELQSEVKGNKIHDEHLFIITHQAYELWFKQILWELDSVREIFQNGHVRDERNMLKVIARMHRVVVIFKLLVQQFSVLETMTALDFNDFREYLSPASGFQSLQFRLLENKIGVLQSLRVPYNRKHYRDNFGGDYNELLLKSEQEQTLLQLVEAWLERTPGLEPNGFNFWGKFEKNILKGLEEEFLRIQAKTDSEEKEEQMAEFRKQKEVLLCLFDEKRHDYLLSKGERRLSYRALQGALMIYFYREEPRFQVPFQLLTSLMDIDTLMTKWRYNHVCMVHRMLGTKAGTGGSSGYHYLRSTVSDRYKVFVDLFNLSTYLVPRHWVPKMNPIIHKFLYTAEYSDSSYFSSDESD

Row | SMILES | IC50 [1] | CC50 [2]
1 | Fc1cccc2[nH]cc(/C=C/c3cccnc3)c12 | 10 µM | > 80 µM
2 | O=C(O)c1ccc2[nH]cc(/C=C/c3cccnc3)c2c1 | > 200 µM | > 200 µM
3 | N#C/C=C\c1c[nH]c2ccccc12 | > 80 µM | > 80 µM
4 | Brc1cccc2[nH]cc(/C=C/c3cccnc3)c12 | > 200 µM | > 200 µM
5 | O=[N+]([O-])c1cccc2[nH]cc(/C=C/c3cccnc3)c12 | > 200 µM | > 200 µM
6 | COC(=O)c1ccc2[nH]cc(/C=C/c3cccnc3)c2c1 | > 200 µM | > 200 µM
7 | O=C(O)/C=C/c1c[nH]c2ccccc12 | 18 µM | > 400 µM
8 | C(=C\c1n[nH]c2ccccc12)/c1cccnc1 | > 200 µM | > 80 µM
9 | COc1ccc2c(/C=C/c3cccnc3)c[nH]c2c1 | > 200 µM | > 200 µM
10 | N#C/C(=C\c1c[nH]c2cc(F)ccc12)C(=O)O | > 80 µM | > 80 µM
11 | Fc1ccc2c(/C=C/c3cccc(Br)c3)c[nH]c2c1 | > 200 µM | > 200 µM
12 | C(#Cc1c[nH]c2ccccc12)c1cccnc1 | 6 µM | 200 µM
13 | Clc1cccc2[nH]cc(/C=C/c3cccnc3)c12 | > 40 µM | 40 µM
14 | O=C(O)C(=Cc1c[nH]c2cc(F)ccc12)C(=O)O | > 80 µM | > 80 µM
15 | N#C/C=C/c1c[nH]c2cc(F)ccc12 | 3 µM | > 80 µM
16 | OC/C=C/c1c[nH]c2cc(F)ccc12 | 80 µM | 100 µM
17 | c1cncc(CCc2c[nH]c3ccccc23)c1 | 80 µM | > 80 µM
18 | Fc1cccc2c(/C=C/c3cccnc3)c[nH]c12 | 50 µM | > 400 µM
19 | C(=C\c1c[nH]c2c1ccc1ccccc12)/c1cccnc1 | > 200 µM | > 80 µM
20 | N#CCc1c[nH]c2ccccc12 | > 80 µM | > 80 µM
21 | Fc1cccc(/C=C/c2c[nH]c3cc(F)ccc23)c1 | 10 µM | 40 µM

Row | SMILES | IC50 [1] | CC50 [2]
22 | C(=C\c1c[nH]c2ccncc12)/c1cccnc1 | > 200 µM | > 80 µM
23 | N#CSCCc1c[nH]c2ccccc12 | 44 µM | > 80 µM
24 | COc1cccc(/C=C/c2c[nH]c3cc(F)ccc23)c1 | 10 µM | 40 µM
25 | O=[N+]([O-])c1cccc(/C=C/c2c[nH]c3cc(F)ccc23)c1 | 3 µM | 40 µM
26 | Fc1ccc2c(/C=C/c3ccc4ccccc4c3)c[nH]c2c1 | > 200 µM | > 200 µM
27 | Clc1ccc2[nH]cc(/C=C/c3cccnc3)c2c1 | 20 µM | > 80 µM
28 | COc1ccc2[nH]cc(/C=C/c3cccnc3)c2c1 | 40 µM | > 80 µM
29 | COC(=O)c1ccc2c(/C=C/c3cccnc3)c[nH]c2c1 | > 200 µM | > 200 µM
30 | COc1cccc2c(/C=C/c3cccnc3)c[nH]c12 | > 200 µM | > 200 µM
31 | Brc1ccc2[nH]cc(/C=C/c3cccnc3)c2c1 | 40 µM | 20 µM
32 | CCOC(=O)/C(C#N)=C/c1c[nH]c2cc(F)ccc12 | > 80 µM | > 80 µM
33 | C(=C\c1c[nH]c2ccccc12)/c1cccnc1 | 1 µM | > 80 µM
34 | Oc1ccc2c(/C=C/c3cccnc3)c[nH]c2c1 | > 200 µM | > 200 µM
35 | C(=C\c1ccc2[nH]ccc2c1)/c1cccnc1 | > 200 µM | > 80 µM
36 | Fc1ccc2c(/C=C/c3ccccn3)c[nH]c2c1 | 3 µM | 100 µM
37 | Fc1ccc2[nH]cc(/C=C/c3cccnc3)c2c1 | 5 µM | > 80 µM
38 | C/C=C/c1c[nH]c2ccccc12 | > 80 µM | > 80 µM
39 | N#Cc1ccc2[nH]cc(/C=C/c3cccnc3)c2c1 | > 200 µM | > 200 µM
40 | c1cncc(CCCc2c[nH]c3ccccc23)c1 | > 200 µM | > 200 µM
41 | Brc1cccc2c(/C=C/c3cccnc3)c[nH]c12 | > 20 µM | 20 µM
42 | Cn1cc(/C=C/c2cccnc2)c2ccc(F)cc21 | > 200 µM | > 200 µM
